In brackets after ≈: the same amount, converted by molar mass. Bounds are passed on as bounds.

The subject of one test is Influenza B virus. The test can be described thus: Concentration required for reduction of plaque against influenza B. It counts as functional, organism-based, unidentified influenza virus.
The test system of the next test is Influenza A virus. Kind of test: Concentration required for reduction of plaque against influenza A. In kind it is functional, organism-based, unidentified influenza virus.
The mark [1] stands for this setting: Influenza B virus, read-out: IC50.
The mark [2] stands for this setting: Influenza A virus, read-out: IC50.

Consider `CCCN(CCc1ccccc1)C(=O)[C@@H]1OC(C(=O)O)=C[C@H](O)[C@H]1NC(C)=O`, for which the half-maximal inhibitory concentration (IC50) in the test with Influenza B virus (setting [1]) is more than 100000 ng/mL; in the test on Influenza A virus (setting [2]), 5 ng/mL (≈ 12.8 nM).

Regarding `CCCN(CCC)C(=O)[C@@H]1OC(C(=O)O)=C[C@H](N)[C@H]1NC(C)=O`, the values for the half-inhibitory concentration (IC50) in the test with Influenza B virus (setting [1]) and with Influenza A virus (setting [2]) were 700 ng/mL (≈ 2140 nM) and 2 ng/mL (≈ 6.11 nM), respectively.

On to `CCCN(CCC)C(=O)[C@@H]1OC(C(=O)O)=C[C@H](N)[C@H]1NC(=O)CC`, for which the concentration for half-maximal inhibition (IC50) with Influenza B virus (setting [1]) came out at 3000 ng/mL (≈ 8790 nM); with Influenza A virus (setting [2]), 0.2 ng/mL (≈ 0.586 nM).

For the molecule `CCCN(CCc1ccccc1)C(=O)[C@@H]1OC(C(=O)O)=C[C@H](N)[C@H]1NC(=O)C(F)(F)F`, the values for the IC50 in the test on Influenza B virus (setting [1]) and in the test on Influenza A virus (setting [2]) were 56 ng/mL (≈ 126 nM) and 4 ng/mL (≈ 9.02 nM), respectively.

For `CCCN(CCC)C(=O)[C@@H]1OC(C(=O)O)=C[C@H](N)[C@H]1NC(=O)C(F)(F)F`, the 50% inhibitory concentration (IC50) was 300 ng/mL (≈ 787 nM) in the test with Influenza B virus (setting [1]) and 0.01 ng/mL (≈ 0.0262 nM) in the test with Influenza A virus (setting [2]).

On to `CCCN(CCc1ccccc1)C(=O)[C@@H]1OC(C(=O)O)=C[C@H](N)[C@H]1NC(C)=O`, for which the IC50 turned out to be 300 ng/mL (≈ 770 nM) in the test with Influenza B virus, 280 ng/mL (≈ 719 nM) in the test with Influenza B virus (setting [1]), 30 ng/mL (≈ 77 nM) in the test on Influenza A virus and 30 ng/mL (≈ 77 nM) in the test on Influenza A virus (setting [2]).

In the case of `CC(=O)N[C@H]1[C@H]([C@H](O)[C@H](O)CO)OC(C(=O)O)=C[C@@H]1NC(=N)N` [ZANAMIVIR], the IC50 is 2 ng/mL (≈ 6.02 nM) with Influenza B virus (setting [1]) and 5 ng/mL (≈ 15 nM) in the test with Influenza A virus (setting [2]).

The record behind these values is ChEMBL document CHEMBL1134218, “Sialidase inhibitors related to zanamivir. Further SAR studies of 4-amino-4H-pyran-2-carboxylic acid-6-propylamides” (Bioorg Med Chem Lett, 2001).
